Assay results taken from PubChem BioAssay (NCI).
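Test compounds were applied to cells in 96-well plates for 48 hours at 5 doses. The concentration for 50% growth inhibition is given as GI50. The concentration for full growth arrest is given as TGI.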

Key:
Assay in all cases: NCI anticancer screen, dose series, 48 h
[1] = test system: HCC-2998 colon
[2] = test system: IGROV1 ovarian
[3] = test system: MALME-3M melanoma
[4] = test system: OVCAR-5 ovarian
[5] = test system: RPMI-8226 leukemia
[6] = test system: SK-OV-3 ovarian
[7] = test system: SNB-75 CNS
[8] = test system: TK-10 renal
[9] = test system: U251 CNS
[10] = test system: HCT-116 colon

With `N#C/C(=C/C=C/c1ccccc1)S(=O)c1ccccc1` (stereo not given) the GI50 [1] was 0.342 µM, the TGI [1] was 1.18 µM and the GI50 [2] was 0.467 µM. It also gave a TGI [2] of 3 µM, a GI50 [3] of 0.796 µM and a TGI [3] of 2.5 µM. The GI50 [4] was 0.3 µM, the TGI [4] was 1.07 µM and the GI50 [5] was 0.351 µM. For the same molecule, the TGI [5] was 1.32 µM, the GI50 [6] was 2.5 µM and the TGI [6] was 10.9 µM. For the same molecule, the GI50 [7] was 0.904 µM, the TGI [7] was 3.01 µM and the GI50 [8] was 0.501 µM. The TGI [8] was 1.85 µM, the GI50 [9] was 0.483 µM and the TGI [9] was 1.7 µM.
`CCCCCCCC(=O)OCC1OC(n2cc(F)c(=O)[nH]c2=O)C(NC(=O)OCc2ccccc2)C(OC(=O)CCCCCCC)C1O` (stereo not given) showed a TGI [1] greater than 100 µM, a TGI [10] greater than 100 µM and a TGI [2] greater than 100 µM. It also gave a TGI [3] of 44.2 µM, a TGI [5] of 51.2 µM and a TGI [6] greater than 100 µM. It also gave a TGI [7] greater than 100 µM, a TGI [8] greater than 100 µM and a TGI [9] of 60.9 µM.
Molecule `O=C(COc1ccc(Cl)cc1)N1N=C(c2ccc([N+](=O)[O-])o2)CC1(O)c1ccccc1` (stereo not given) has a TGI [1] of 16.1 µM, a TGI [10] of 17.9 µM and a TGI [2] of 42 µM. The TGI [3] was 23.4 µM, the TGI [4] was 29.7 µM and the TGI [5] was 18.3 µM. For the same molecule, the TGI [6] was 47.3 µM, the TGI [8] was 20.6 µM and the TGI [9] was 15.5 µM.
Molecule `N#Cc1ccc(-c2nc3ccc(Cl)cc3[nH]2)cc1` has a TGI [1] greater than 100 µM, a TGI [2] greater than 100 µM and a TGI [5] greater than 100 µM. It also gave a TGI [6] greater than 100 µM, a TGI [7] greater than 100 µM and a TGI [9] greater than 100 µM.
In the case of `N#CC(C(=O)CCC(=O)Nc1ccc(Cl)cc1)c1ccccc1Cl` (stereo not given), the TGI [10] is reported as greater than 100 µM, the TGI [2] is reported as greater than 100 µM and the TGI [3] is reported as greater than 100 µM. It also gave a TGI [4] greater than 100 µM, a TGI [5] greater than 100 µM and a TGI [6] greater than 100 µM. For the same molecule, the TGI [7] was greater than 100 µM, the TGI [8] was greater than 100 µM and the TGI [9] was greater than 100 µM.
Molecule `O=C(O)CN(c1ccccc1)S(=O)(=O)c1ccc(Cl)cc1` has a TGI [2] greater than 100 µM, a TGI [3] greater than 100 µM and a TGI [4] greater than 100 µM. The TGI [5] was greater than 100 µM, the TGI [6] was greater than 100 µM and the TGI [7] was greater than 100 µM. For the same molecule, the TGI [8] was greater than 100 µM and the TGI [9] was greater than 100 µM.
For `CCCC1C(=O)C(CC)Cc2c(OC)ccc(OC)c21` (stereo not given), the TGI [1] was greater than 100 µM, the TGI [2] was greater than 100 µM and the TGI [3] was greater than 100 µM. For the same molecule, the TGI [4] was greater than 100 µM, the TGI [5] was greater than 100 µM and the TGI [6] was greater than 100 µM. It also gave a TGI [7] greater than 100 µM, a TGI [8] greater than 100 µM and a TGI [9] greater than 100 µM.
For `O=C(O)CCSC(=O)Nc1cccc([N+](=O)[O-])c1`, the TGI [1] was greater than 100 µM, the TGI [10] was greater than 100 µM and the TGI [2] was greater than 100 µM. It also gave a TGI [5] greater than 100 µM, a TGI [7] greater than 100 µM and a TGI [8] greater than 100 µM. For the same molecule, the TGI [9] was greater than 100 µM.
Molecule `COc1cc([C@@H]2c3cc4c(cc3[C@H](OC(C)=O)[C@H]3COC(=O)[C@H]23)OCO4)cc(OC)c1OC` has a GI50 [1] of 0.0401 µM, a TGI [1] greater than 100 µM and a GI50 [2] of 0.0571 µM. For the same molecule, the TGI [2] was greater than 100 µM, the GI50 [3] was greater than 100 µM and the TGI [3] was greater than 100 µM. It also gave a GI50 [4] of 0.0533 µM, a TGI [4] greater than 100 µM and a GI50 [5] of 0.03 µM. It also gave a TGI [5] of 3.19 µM, a GI50 [6] of 0.035 µM and a TGI [6] greater than 100 µM. For the same molecule, the GI50 [7] was 8.43 µM, the TGI [7] was greater than 100 µM and the GI50 [8] was 75.2 µM. It also gave a TGI [8] greater than 100 µM, a GI50 [9] of 0.0352 µM and a TGI [9] greater than 100 µM.
`O=C1C(Cl)=C(Nc2cccc(O)c2)C(=O)N1c1cccc(Cl)c1` showed a GI50 [10] of 21.7 µM, a TGI [10] greater than 100 µM and a GI50 [2] of 18.3 µM. For the same molecule, the TGI [2] was 51.4 µM, the GI50 [3] was 51.7 µM and the TGI [3] was greater than 100 µM. It also gave a GI50 [4] of 62.5 µM, a TGI [4] greater than 100 µM and a GI50 [5] of 12.8 µM. The TGI [5] was 34.3 µM, the GI50 [6] was 56.5 µM and the TGI [6] was greater than 100 µM. The GI50 [8] was greater than 100 µM, the TGI [8] was greater than 100 µM and the GI50 [9] was 57.7 µM. It also gave a TGI [9] greater than 100 µM.
In the case of `O=S(=O)(NCCCNc1cc(-c2cn(-c3ccccc3)nc2-c2cccc(O)c2)ccn1)c1cccc2ccccc12`, the GI50 [1] is reported as 1.75 µM, the TGI [1] is reported as 3.45 µM and the GI50 [10] is reported as 2.8 µM. It also gave a TGI [10] of 12.4 µM, a GI50 [2] of 5.86 µM and a TGI [2] greater than 100 µM. It also gave a GI50 [4] of 8.43 µM, a TGI [4] greater than 100 µM and a GI50 [5] of 1.85 µM. For the same molecule, the TGI [5] was 7.89 µM, the GI50 [6] was 4.83 µM and the TGI [6] was greater than 100 µM. It also gave a GI50 [7] of 2.35 µM, a TGI [7] greater than 100 µM and a GI50 [8] of 6.11 µM. For the same molecule, the TGI [8] was 44.9 µM, the GI50 [9] was 1.78 µM and the TGI [9] was 13.1 µM.
Molecule `CC(=O)Nc1ccc2oc(=O)c3ccccc3c2c1` has a TGI [1] greater than 100 µM, a TGI [10] greater than 100 µM and a TGI [2] greater than 100 µM. For the same molecule, the TGI [3] was greater than 100 µM, the TGI [4] was greater than 100 µM and the TGI [5] was greater than 100 µM. It also gave a TGI [7] greater than 100 µM and a TGI [9] greater than 100 µM.
For `N=C1C(c2nc3ccccc3s2)=C(O)CN1c1ccc(Cl)cc1Cl`, the GI50 [1] was 10.4 µM, the TGI [1] was 31.1 µM and the GI50 [10] was 4.95 µM. For the same molecule, the TGI [10] was 25.6 µM, the GI50 [2] was 19.4 µM and the TGI [2] was 46.9 µM. The GI50 [4] was 34.8 µM, the TGI [4] was greater than 100 µM and the GI50 [5] was 18.9 µM. The TGI [5] was 62.1 µM, the GI50 [6] was 32.2 µM and the TGI [6] was greater than 100 µM. It also gave a GI50 [7] of 13.1 µM, a TGI [7] greater than 100 µM and a GI50 [8] of 14.4 µM. For the same molecule, the TGI [8] was 42.8 µM, the GI50 [9] was 10.1 µM and the TGI [9] was 29.9 µM.
For `CC(=O)NC1C(OCc2ccccc2)OC(COC(=O)CCCCCNc2ccc([N+](=O)[O-])c3[nH]c4ccc(O)cc4c(=O)c23)C(O)C1OC(C)C(=O)N[C@@H](C)C(=O)N[C@H](CCC(=O)OCc1ccccc1)C(N)=O` (stereo not given in full), the TGI [1] was 10.9 µM, the TGI [10] was 1.34 µM and the TGI [2] was 34 µM. The TGI [3] was 2.87 µM, the TGI [4] was 3.81 µM and the TGI [5] was 3.57 µM. For the same molecule, the TGI [6] was 10.7 µM, the TGI [7] was 13.2 µM and the TGI [9] was 7.04 µM.
`CC(=O)NNC(=S)/N=C/c1c(O)cc(C)oc1=O` showed a TGI [1] greater than 100 µM, a TGI [10] greater than 100 µM and a TGI [2] greater than 100 µM. The TGI [4] was greater than 100 µM, the TGI [6] was greater than 100 µM and the TGI [7] was greater than 100 µM. The TGI [8] was greater than 100 µM and the TGI [9] was greater than 100 µM.
Molecule `NCCCn1c2c(c3cc4c(cc3c1=O)OCO4)C(=O)c1ccccc1-2` has a GI50 [1] of 0.237 µM, a TGI [1] of 0.718 µM and a TGI [10] of 0.554 µM. It also gave a TGI [5] of 0.208 µM, a GI50 [6] of 10.5 µM and a TGI [6] greater than 100 µM. For the same molecule, the GI50 [8] was 1.98 µM, the TGI [8] was 5.75 µM and the GI50 [9] was 0.321 µM. For the same molecule, the TGI [9] was 0.753 µM.
`COC1CC2C=CC3C4OC2(/C(C)=C/C(C)C(C(C)O)OC1=O)C3C(O)C(C)C4OC(=O)c1ccc[nH]1` (stereo not given) gave a TGI [1] greater than 100 µM, a TGI [10] greater than 100 µM and a TGI [2] greater than 100 µM. For the same molecule, the TGI [4] was greater than 100 µM, the TGI [5] was greater than 100 µM and the TGI [8] was greater than 100 µM. It also gave a TGI [9] greater than 100 µM.
In the case of `CC1Cc2c(N)nc(N3CCOCC3)nc2NC1=O` (stereo not given), the TGI [10] is reported as greater than 100 µM, the TGI [2] is reported as greater than 100 µM and the TGI [3] is reported as greater than 100 µM. For the same molecule, the TGI [5] was greater than 100 µM, the TGI [6] was greater than 100 µM and the TGI [7] was greater than 100 µM. For the same molecule, the TGI [8] was greater than 100 µM and the TGI [9] was greater than 100 µM.
In the case of `Cc1ccc(C(=O)CCC2C(=O)CC(C)(C)CC2=O)cc1`, the TGI [1] is reported as greater than 100 µM, the TGI [10] is reported as greater than 100 µM and the TGI [2] is reported as greater than 100 µM. The TGI [4] was greater than 100 µM, the TGI [6] was greater than 100 µM and the TGI [7] was greater than 100 µM. The TGI [8] was greater than 100 µM and the TGI [9] was greater than 100 µM.
Molecule `O=C(N/C(=C\c1ccc([N+](=O)[O-])cc1)c1nc2ccc(Cl)cc2[nH]1)c1ccccc1` has a TGI [1] of 33.8 µM, a TGI [2] of 43.8 µM and a TGI [3] of 97.9 µM. The TGI [4] was 74.5 µM, the TGI [6] was 94.6 µM and the TGI [8] was 88.7 µM. The TGI [9] was 34.9 µM.
